# According to patent US10954232B2, “Pyrazole derivative as ALK5 inhibitor and uses thereof” (HANMI PHARMACEUTICAL CO., LTD., priority 2016, dated 2021):
# Target: T1, ALK5 kinase (Homo sapiens, UniProt P36897)
# T1 construct: GST; purchased Thermo Fisher Scientific Solutions
# T1 sequence (P36897 34-503): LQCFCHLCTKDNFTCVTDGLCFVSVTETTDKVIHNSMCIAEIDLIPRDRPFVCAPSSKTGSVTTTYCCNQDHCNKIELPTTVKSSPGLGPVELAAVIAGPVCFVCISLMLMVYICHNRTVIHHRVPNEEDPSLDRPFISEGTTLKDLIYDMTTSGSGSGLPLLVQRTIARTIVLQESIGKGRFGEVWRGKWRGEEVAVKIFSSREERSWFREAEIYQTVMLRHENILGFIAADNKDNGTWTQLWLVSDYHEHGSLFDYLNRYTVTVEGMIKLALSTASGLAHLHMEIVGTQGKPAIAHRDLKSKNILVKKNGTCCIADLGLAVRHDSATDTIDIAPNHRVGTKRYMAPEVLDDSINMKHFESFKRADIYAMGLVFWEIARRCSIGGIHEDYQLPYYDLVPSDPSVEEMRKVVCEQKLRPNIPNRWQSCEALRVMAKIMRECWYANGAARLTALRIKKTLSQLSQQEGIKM
# Test: Activity inhibition test on ALK5 enzyme (LanthaScreen Eu binding kinase assay)
# Settings: kinase tracer 178, 60 minutes at room temperature
# Method in brief: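 IC50 is the concentration giving 50% inhibition relative to control, taken from fluorescence after 60 min stirring at room temperature. Final mix held kinase 5 nM, Eu-GST binding antibody 2 nM and tracer 178 10 nM. Compounds were serially diluted from 1 μM to 0.0001 μM.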
row,IC50 [nM],SMILES
1,~100,"Cc1cccc(-n2nc(C(=O)Nc3ccccc3Cl)cc2-c2ccc3ncnn3c2)n1 [Example 127, 5-([1,2,4]triazolo[1,5-α]pyridin-6-yl)-N-(2-chlorophenyl)-1-(6-methylpyridin-2-yl)-1H-pyrazole-3-carboxyamide]"
2,10 to 100,"Cc1cccc(-n2nc(C(=O)Nc3ccc(Cl)cc3)cc2-c2ccc3ncnn3c2)n1 [Example 129, 5-([1,2,4]triazolo[1,5-α]pyridin-6-yl)-N-(4-chlorophenyl)-1-(6-methylpyridin-2-yl)-1H-pyrazole-3-carboxyamide]"
3,10 to 100,"Cc1cccc(-n2nc(C(=O)Nc3ccccc3Br)cc2-c2ccc3ncnn3c2)n1 [Example 130, 5-([1,2,4]triazolo[1,5-α]pyridin-6-yl)-N-(2-bromophenyl)-1-(6-methylpyridin-2-yl)-1H-pyrazole-3-carboxyamide]"
4,10 to 100,"Cc1cccc(-n2nc(C(=O)Nc3cccc(Br)c3)cc2-c2ccc3ncnn3c2)n1 [Example 131, 5-([1,2,4]triazolo[1,5-α]pyridin-6-yl)-N-(3-bromophenyl)-1-(6-methylpyridin-2-yl)-1H-pyrazole-3-carboxyamide]"
5,10 to 100,"Cc1cccc(-n2nc(C(=O)Nc3ccc(F)cc3F)cc2-c2ccc3ncnn3c2)n1 [Example 134, 5-([1,2,4]triazolo[1,5-α]pyridin-6-yl)-N-(2,4-difluorophenyl)-1-(6-methylpyridin-2-yl)-1H-pyrazole-3-carboxyamide]"
6,10 to 100,"Cc1cccc(-n2nc(C(=O)Nc3ccc(Cl)c(Cl)c3)cc2-c2ccc3ncnn3c2)n1 [Example 141, 5-([1,2,4]triazolo[1,5-α]pyridin-6-yl)-N-(3,4-dichlorophenyl)-1-(6-methylpyridin-2-yl)-1H-pyrazole-3-carboxyamide]"
7,10 to 100,"Cc1cccc(-n2nc(C(=O)Nc3ccc(F)cc3Br)cc2-c2ccc3ncnn3c2)n1 [Example 142, 5-([1,2,4]triazolo[1,5-α]pyridin-6-yl)-N-(2-bromo-4-fluorophenyl)-1-(6-methylpyridin-2-yl)-1H-pyrazole-3-carboxyamide]"
8,10 to 100,CSc1ccc(NC(=O)c2cc(-c3ccc4ncnn4c3)n(-c3cccc(C)n3)n2)cc1 [Example 144]
9,6,"Cc1cccc(-n2nc(C(=O)Nc3ccc([S+](C)[O-])cc3)cc2-c2ccc3ncnn3c2)n1 (stereo not drawn) [Example 146, 5-([1,2,4]triazolo[1,5-α]pyridin-6-yl)-N-(4-(methylsulfinyl)phenyl)-1-(6-methylpyridin-2-yl)-1H-pyrazole-3-carboxyamide]"
10,7.7,"Cc1cccc(-n2nc(C(=O)Nc3ccc(S(C)(=N)=O)cc3)cc2-c2ccc3ncnn3c2)n1 (stereo not drawn) [Example 149, 5-([1,2,4]triazolo[1,5-α]pyridin-6-yl)-N-(4-(S-methylsulfonimidoyl)phenyl)-1-(6-methylpyridin-2-yl)-1H-pyrazole-3-carboxyamide]"
11,4.8,"CCCS(=O)(=O)c1ccc(NC(=O)c2cc(-c3ccc4ncnn4c3)n(-c3cccc(C)n3)n2)cc1 [Example 150, 5-([1,2,4]triazolo[1,5-α]pyridin-6-yl)-N-(4-(propylsulfonyl)phenyl)-1-(6-methylpyridin-2-yl)-1H-pyrazole-3-carboxyamide]"
12,2.7,"CCCS(=O)(=O)c1ccc(NC(=O)c2cc(-c3ccc4ncnn4c3)n(-c3cccc(C)n3)n2)cc1 [Example 151, 5-([1,2,4]triazolo[1,5-α]pyridin-6-yl)-N-(4-(propylsulfonyl)phenyl)-1-(6-methylpyridin-2-yl)-1H-pyrazole-3-carboxyamide]"
13,22,"Cc1cccc(-n2nc(C(=O)NCc3cccc(F)c3)cc2-c2ccc3ncnn3c2)n1 [Example 156, 5-([1,2,4]triazolo[1,5-α]pyridin-6-yl)-N-(3-fluorobenzyl)-1-(6-methylpyridin-2-yl)-1H-pyrazole-3-carboxyamide]"

# Continued, molecule first:
row,SMILES,IC50 [nM]
1,"Cc1cccc(-n2nc(C(=O)Nc3ccc(F)cc3)cc2-c2ccc3ncnn3c2)n1 [Example 126, 5-([1,2,4]triazolo[1,5-α]pyridin-6-yl)-N-(4-fluorophenyl)-1-(6-methylpyridin-2-yl)-1H-pyrazole-3-carboxyamide]",~10
2,"Cc1cccc(-n2nc(C(=O)Nc3cccc(Cl)c3)cc2-c2ccc3ncnn3c2)n1 [Example 128, 5-([1,2,4]triazolo[1,5-α]pyridin-6-yl)-N-(3-chlorophenyl)-1-(6-methylpyridin-2-yl)-1H-pyrazole-3-carboxyamide]",10 to 100
3,"Cc1cccc(-n2nc(C(=O)Nc3ccc(Br)cc3)cc2-c2ccc3ncnn3c2)n1 [Example 132, 5-([1,2,4]triazolo[1,5-α]pyridin-6-yl)-N-(4-bromophenyl)-1-(6-methylpyridin-2-yl)-1H-pyrazole-3-carboxyamide]",~10
4,"Cc1cccc(-n2nc(C(=O)Nc3cccc(F)c3F)cc2-c2ccc3ncnn3c2)n1 [Example 133, 5-([1,2,4]triazolo[1,5-α]pyridin-6-yl)-N-(2,3-difluorophenyl)-1-(6-methylpyridin-2-yl)-1H-pyrazole-3-carboxyamide]",10 to 100
5,"Cc1cccc(-n2nc(C(=O)Nc3cc(F)ccc3F)cc2-c2ccc3ncnn3c2)n1 [Example 135, 5-([1,2,4]triazolo[1,5-α]pyridin-6-yl)-N-(2,5-difluorophenyl)-1-(6-methylpyridin-2-yl)-1H-pyrazole-3-carboxyamide]",10 to 100
6,"Cc1cccc(-n2nc(C(=O)Nc3ccc(F)c(F)c3)cc2-c2ccc3ncnn3c2)n1 [Example 136, 5-([1,2,4]triazolo[1,5-α]pyridin-6-yl)-N-(3,4-difluorophenyl)-1-(6-methylpyridin-2-yl)-1H-pyrazole-3-carboxyamide]",~10
7,"Cc1cccc(-n2nc(C(=O)Nc3cc(F)cc(F)c3)cc2-c2ccc3ncnn3c2)n1 [Example 137, 5-([1,2,4]triazolo[1,5-α]pyridin-6-yl)-N-(3,5-difluorophenyl)-1-(6-methylpyridin-2-yl)-1H-pyrazole-3-carboxyamide]",10 to 100
8,"Cc1cccc(-n2nc(C(=O)Nc3cccc(Cl)c3F)cc2-c2ccc3ncnn3c2)n1 [Example 138, 5-([1,2,4]triazolo[1,5-α]pyridin-6-yl)-N-(3-chloro-2-fluorophenyl)-1-(6-methylpyridin-2-yl)-1H-pyrazole-3-carboxyamide]",10 to 100
9,"Cc1cccc(-n2nc(C(=O)Nc3ccc(Cl)cc3F)cc2-c2ccc3ncnn3c2)n1 [Example 139, 5-([1,2,4]triazolo[1,5-α]pyridin-6-yl)-N-(4-chloro-2-fluorophenyl)-1-(6-methylpyridin-2-yl)-1H-pyrazole-3-carboxyamide]",10 to 100
10,"Cc1cccc(-n2nc(C(=O)Nc3ccc(F)c(Cl)c3)cc2-c2ccc3ncnn3c2)n1 [Example 140, 5-([1,2,4]triazolo[1,5-α]pyridin-6-yl)-N-(3-chloro-4-fluorophenyl)-1-(6-methylpyridin-2-yl)-1H-pyrazole-3-carboxyamide]",~10
11,CSc1cccc(NC(=O)c2cc(-c3ccc4ncnn4c3)n(-c3cccc(C)n3)n2)c1 [Example 143],6.6
12,"Cc1cccc(-n2nc(C(=O)Nc3cccc([S+](C)[O-])c3)cc2-c2ccc3ncnn3c2)n1 (stereo not drawn) [Example 145, 5-([1,2,4]triazolo[1,5-α]pyridin-6-yl)-N-(3-(methylsulfinyl)phenyl)-1-(6-methylpyridin-2-yl)-1H-pyrazole-3-carboxyamide]",15
13,"Cc1cccc(-n2nc(C(=O)Nc3ccc(S(C)(=O)=O)cc3)cc2-c2ccc3ncnn3c2)n1 [Example 147, 5-([1,2,4]triazolo[1,5-α]pyridin-6-yl)-N-(4-(methylsulfonyl)phenyl)-1-(6-methylpyridin-2-yl)-1H-pyrazole-3-carboxyamide]",3.7
14,"Cc1cccc(-n2nc(C(=O)Nc3ccc(S(N)(=O)=O)cc3)cc2-c2ccc3ncnn3c2)n1 [Example 148, 5-([1,2,4]triazolo[1,5-α]pyridin-6-yl)-N-(4-sulfamoylphenyl)-1-(6-methylpyridin-2-yl)-1H-pyrazole-3-carboxyamide]",8.3
15,"Cc1cccc(-n2nc(C(=O)Nc3ccc(F)nc3)cc2-c2ccc3ncnn3c2)n1 [Example 152, 5-([1,2,4]triazolo[1,5-α]pyridin-6-yl)-N-(6-fluoropyridin-3-yl)-1-(6-methylpyridin-2-yl)-1H-pyrazole-3-carboxyamide]",4.6
16,"Cc1cccc(-n2nc(C(=O)Nc3ccc(Cl)nc3)cc2-c2ccc3ncnn3c2)n1 [Example 153, 5-([1,2,4]triazolo[1,5-α]pyridin-6-yl)-N-(6-chloropyridin-3-yl)-1-(6-methylpyridin-2-yl)-1H-pyrazole-3-carboxyamide]",25
17,"COc1ccc(NC(=O)c2cc(-c3ccc4ncnn4c3)n(-c3cccc(C)n3)n2)cn1 [Example 154, 5-([1,2,4]triazolo[1,5-α]pyridin-6-yl)-N-(6-methoxypyridin-3-yl)-1-(6-methylpyridin-2-yl)-1H-pyrazole-3-carboxyamide]",~10
18,"Cc1cccc(-n2nc(C(=O)NCc3ccccc3F)cc2-c2ccc3ncnn3c2)n1 [Example 155, 5-([1,2,4]triazolo[1,5-α]pyridin-6-yl)-N-(2-fluorobenzyl)-1-(6-methylpyridin-2-yl)-1H-pyrazole-3-carboxyamide]",13
